In US20260061056A1, “RINSE SOLUTION FOR A PHOTODYNAMIC DISINFECTION” (MANA HEALTH TECHNOLOGIES GMBH, priority 2022, published 2026):

Experiments:
[1] = absorption spectrum of the photosensitiser (FIG. 1); type: physicochemical; conditions: absorption spectrum A of the photosensitiser in rinsing solution
Text: The absorption spectrum A of the photosensitiser used here (dotted line in FIG. 1) has a maximum at a wavelength A of around 445 nm. To activate the photosensitiser, irradiation in the range of this wavelength—or optionally, as in the present example, with a broadband radiation source that also encompasses this range—is therefore effective. […] If more than one photosensitiser is used, this generally results in several absorption maxima to which the radiation source or its radiation spectrum must be adapted.

Streptococcus mutans = assay: photodynamic effect of rinsing solution against S. mutans bacterial suspension, photosensitiser concentration series (FIG. 2); type: cell-based; conditions: irradiation 300 s; for microorganism content after irradiation: 17-21 J/cm^2
Text: The corresponding comparative value was approx. 3.2·10^7 CFU/ml. The other bars of the graph each show the reduction in the microorganism content when using the (here: single) photosensitiser at different concentrations, including such concentrations that differ from the disclosed subject matter, in the rinsing solution after effective irradiation for 300 s with between 10 and 45 J/cm^2, in the present case between 17 and 21 J/cm^2.
As the other bars R50, R125 and R250 show, the microorganism content increases again with increasing photosensitiser concentration of 0.5 wt. % (R50), 1.25 wt. % (R125) and 2.5 wt. % (R250), i.e. to approx. 1.6·10^5 CFU/ml, approx. 1.1·10^6 CFU/ml and approx. 2.9·10^6 CFU/ml, respectively. This means that despite the higher concentration of the photosensitiser and the higher number of free radicals to be expected as a result, the efficacy of the disinfection is reduced.

With `Cc1cc2nc3c(=O)[nH]c(=O)nc-3n(C[C@H](O)[C@H](O)[C@H](O)COP(=O)([O-])O)c2cc1C.[Na+]` [riboflavin 5′-phosphate sodium, Riboflavin 5′-phosphate sodium] the absorption maximum wavelength [1] was “around 445 nm”, the “microorganism content after irradiation” value (Streptococcus mutans; 0.01 wt. % photosensitiser in rinsing solution (bar R01), growth control approx. 3.2·10^7 CFU/ml) was “approx. 2.1·10^6 CFU/ml” and the “reduction of microorganism content versus growth control” value (Streptococcus mutans; 0.01 wt. % photosensitiser) was “more than an order of magnitude”. For the same compound, the “microorganism content after irradiation” value (Streptococcus mutans; 0.25 wt. % photosensitiser in rinsing solution (bar R25)) was “approx. 2.0·10^4 CFU/ml”, the “microorganism content as fraction of the comparative value” (Streptococcus mutans; 0.25 wt. % photosensitiser) was “less than 1/1000” and the “reduction of microorganism content versus growth control” value (Streptococcus mutans; 0.25 wt. % photosensitiser) was “more than 3 orders of magnitude”. For the same compound, the “microorganism content after irradiation” value (Streptococcus mutans; 0.5 wt. % photosensitiser (bar R50)) was “approx. 1.6·10^5 CFU/ml”, the “microorganism content after irradiation” value (Streptococcus mutans; 1.25 wt. % photosensitiser (bar R125)) was “approx. 1.1·10^6 CFU/ml” and the “microorganism content after irradiation” value (Streptococcus mutans; 2.5 wt. % photosensitiser (bar R250)) was “approx. 2.9·10^6 CFU/ml”.
